Data published in ChEMBL document CHEMBL4219030, “Progress in the discovery of small molecule modulators of the Cys-loop superfamily receptors” (Bioorg Med Chem Lett, 2017).

Tests used:
[1] = target: T1, 5-hydroxytryptamine receptor 3A (Cavia porcellus, UniProt O70212); assay: Antagonist activity 5-HT3A receptor in guinea pig ileum assessed as inhibition of 2-methyl-5-HT induced response preincubated for 10 mins followed by agonist addition; details: read-out: pA2 (converted)
T1 sequence (O70212 whole entry): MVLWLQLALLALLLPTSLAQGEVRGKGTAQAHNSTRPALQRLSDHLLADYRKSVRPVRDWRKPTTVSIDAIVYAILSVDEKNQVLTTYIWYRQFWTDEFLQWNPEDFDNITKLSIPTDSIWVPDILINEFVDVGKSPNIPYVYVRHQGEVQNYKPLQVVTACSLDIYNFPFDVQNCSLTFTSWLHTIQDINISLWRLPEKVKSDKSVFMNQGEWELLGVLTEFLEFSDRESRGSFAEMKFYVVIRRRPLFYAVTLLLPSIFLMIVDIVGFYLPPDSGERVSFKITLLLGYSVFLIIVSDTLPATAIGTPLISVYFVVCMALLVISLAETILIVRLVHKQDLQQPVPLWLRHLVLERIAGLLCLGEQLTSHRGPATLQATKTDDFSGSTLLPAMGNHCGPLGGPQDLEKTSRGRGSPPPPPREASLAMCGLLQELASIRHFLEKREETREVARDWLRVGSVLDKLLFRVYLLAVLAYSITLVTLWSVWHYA

[2] = target: T2, Serotonin 3 (5-HT3) receptor (Homo sapiens, UniProt O95264+P46098); assay: Displacement of [3H]granisetron from human 5-HT3AB receptor expressed in HEK293 cells by scintillation counting method; format: cell-based
T2 sequence (P46098 whole entry): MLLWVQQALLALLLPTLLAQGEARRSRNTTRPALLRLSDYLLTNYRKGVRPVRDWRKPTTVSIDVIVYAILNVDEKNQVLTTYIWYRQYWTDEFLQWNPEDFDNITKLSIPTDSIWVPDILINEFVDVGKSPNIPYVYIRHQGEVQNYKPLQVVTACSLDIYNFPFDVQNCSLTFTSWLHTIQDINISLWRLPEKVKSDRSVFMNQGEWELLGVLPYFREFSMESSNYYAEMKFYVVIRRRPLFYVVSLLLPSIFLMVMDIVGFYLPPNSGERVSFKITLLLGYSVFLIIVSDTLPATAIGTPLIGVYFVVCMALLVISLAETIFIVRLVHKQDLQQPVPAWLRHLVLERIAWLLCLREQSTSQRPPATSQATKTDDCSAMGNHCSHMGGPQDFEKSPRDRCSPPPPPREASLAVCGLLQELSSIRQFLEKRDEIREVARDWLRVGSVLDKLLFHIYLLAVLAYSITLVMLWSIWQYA
T2 sequence (O95264 whole entry): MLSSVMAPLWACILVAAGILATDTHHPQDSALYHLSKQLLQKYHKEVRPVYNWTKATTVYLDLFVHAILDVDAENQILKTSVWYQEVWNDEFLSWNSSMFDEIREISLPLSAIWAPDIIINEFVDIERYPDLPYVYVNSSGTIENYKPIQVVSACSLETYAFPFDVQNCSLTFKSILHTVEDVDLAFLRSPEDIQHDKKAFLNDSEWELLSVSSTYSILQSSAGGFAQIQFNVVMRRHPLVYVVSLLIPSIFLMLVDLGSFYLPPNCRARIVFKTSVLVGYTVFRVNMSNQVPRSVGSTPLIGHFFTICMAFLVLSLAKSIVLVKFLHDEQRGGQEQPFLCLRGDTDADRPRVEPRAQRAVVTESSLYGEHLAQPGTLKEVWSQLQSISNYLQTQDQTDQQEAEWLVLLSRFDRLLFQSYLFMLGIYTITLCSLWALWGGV

[3] = target: T3, 5-hydroxytryptamine receptor 3A (Homo sapiens, UniProt P46098); assay: Displacement of [3H]granisetron from human 5-HT3A receptor expressed in HEK293 cells by scintillation counting method; format: cell-based
T3 sequence (P46098 whole entry): T2 sequence (P46098 whole entry)

[4] = target: T4, Glycine receptor subunit alpha-1 (Homo sapiens) (UniProt P23415); assay: Positive allosteric modulation of human glycine receptor alpha1 expressed in HEK293 cells assessed as potentiation of glycine-induced current response at 10 uM measure for 3 to 6 secs by whole cell patch-clamp method relative to glycine; format: cell-based
T4 sequence (whole entry): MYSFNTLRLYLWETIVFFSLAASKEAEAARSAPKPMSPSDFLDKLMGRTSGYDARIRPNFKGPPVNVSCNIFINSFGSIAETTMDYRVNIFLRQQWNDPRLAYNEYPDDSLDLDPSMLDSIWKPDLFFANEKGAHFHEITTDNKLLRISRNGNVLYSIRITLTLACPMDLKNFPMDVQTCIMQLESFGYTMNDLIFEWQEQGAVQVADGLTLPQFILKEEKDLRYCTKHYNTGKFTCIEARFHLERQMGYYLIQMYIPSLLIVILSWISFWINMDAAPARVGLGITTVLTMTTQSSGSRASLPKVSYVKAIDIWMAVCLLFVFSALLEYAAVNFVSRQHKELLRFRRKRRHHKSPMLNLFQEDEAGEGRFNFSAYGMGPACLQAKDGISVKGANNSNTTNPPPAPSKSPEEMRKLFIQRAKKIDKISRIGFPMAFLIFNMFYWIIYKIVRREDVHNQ

[5] = target: Neuronal acetylcholine receptor subunit alpha-7 (Homo sapiens, UniProt P36544); assay: Inhibition of human alpha7 nAChR expressed in Xenopus oocytes at -80 mV holding potential by electro-physiological analysis; format: cell-based
Sequence of Neuronal acetylcholine receptor subunit alpha-7 (P36544 whole entry): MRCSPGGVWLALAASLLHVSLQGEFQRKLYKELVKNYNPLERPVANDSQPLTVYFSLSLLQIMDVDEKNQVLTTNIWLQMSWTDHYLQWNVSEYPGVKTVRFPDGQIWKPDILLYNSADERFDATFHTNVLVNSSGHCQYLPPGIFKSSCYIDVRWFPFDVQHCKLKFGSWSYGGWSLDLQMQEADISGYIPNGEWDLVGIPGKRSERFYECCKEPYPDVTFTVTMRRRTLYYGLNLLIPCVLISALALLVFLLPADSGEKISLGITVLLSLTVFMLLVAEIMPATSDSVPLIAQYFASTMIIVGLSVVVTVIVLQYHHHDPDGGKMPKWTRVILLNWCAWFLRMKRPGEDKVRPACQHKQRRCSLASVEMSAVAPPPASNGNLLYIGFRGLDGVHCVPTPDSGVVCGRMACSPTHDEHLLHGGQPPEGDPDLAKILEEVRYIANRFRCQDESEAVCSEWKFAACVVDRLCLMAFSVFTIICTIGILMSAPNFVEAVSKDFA

[6] = target: T3, 5-hydroxytryptamine receptor 3A; assay: Antagonist activity at 5-HT3A receptor (unknown origin) assessed as inhibition of serotonin-induced peak currents
[7] = target: T5, Neuronal acetylcholine receptor; alpha4/beta2 (Homo sapiens, UniProt P17787+P43681); assay: Positive allosteric modulation of human (alpha4beta2)2beta2 nAChR expressed in HEK cells preincubated for 15 mins followed by dihydro-beta-erythroidine hydrobromide addition by fluorometric analysis; format: cell-based
T5 sequence (P17787 whole entry): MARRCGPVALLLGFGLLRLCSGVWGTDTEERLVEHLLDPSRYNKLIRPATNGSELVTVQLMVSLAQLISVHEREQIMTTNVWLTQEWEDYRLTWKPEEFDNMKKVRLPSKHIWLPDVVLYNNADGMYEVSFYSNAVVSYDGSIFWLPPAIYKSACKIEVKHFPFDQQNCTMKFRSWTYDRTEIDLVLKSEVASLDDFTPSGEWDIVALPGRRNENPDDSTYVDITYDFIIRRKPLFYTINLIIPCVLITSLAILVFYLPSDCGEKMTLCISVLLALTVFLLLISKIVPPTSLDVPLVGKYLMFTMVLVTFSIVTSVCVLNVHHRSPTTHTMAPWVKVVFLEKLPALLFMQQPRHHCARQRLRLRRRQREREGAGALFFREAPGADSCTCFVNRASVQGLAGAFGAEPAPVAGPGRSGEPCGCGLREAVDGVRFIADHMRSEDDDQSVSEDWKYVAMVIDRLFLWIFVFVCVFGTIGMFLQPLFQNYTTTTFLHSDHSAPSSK
T5 sequence (P43681 whole entry): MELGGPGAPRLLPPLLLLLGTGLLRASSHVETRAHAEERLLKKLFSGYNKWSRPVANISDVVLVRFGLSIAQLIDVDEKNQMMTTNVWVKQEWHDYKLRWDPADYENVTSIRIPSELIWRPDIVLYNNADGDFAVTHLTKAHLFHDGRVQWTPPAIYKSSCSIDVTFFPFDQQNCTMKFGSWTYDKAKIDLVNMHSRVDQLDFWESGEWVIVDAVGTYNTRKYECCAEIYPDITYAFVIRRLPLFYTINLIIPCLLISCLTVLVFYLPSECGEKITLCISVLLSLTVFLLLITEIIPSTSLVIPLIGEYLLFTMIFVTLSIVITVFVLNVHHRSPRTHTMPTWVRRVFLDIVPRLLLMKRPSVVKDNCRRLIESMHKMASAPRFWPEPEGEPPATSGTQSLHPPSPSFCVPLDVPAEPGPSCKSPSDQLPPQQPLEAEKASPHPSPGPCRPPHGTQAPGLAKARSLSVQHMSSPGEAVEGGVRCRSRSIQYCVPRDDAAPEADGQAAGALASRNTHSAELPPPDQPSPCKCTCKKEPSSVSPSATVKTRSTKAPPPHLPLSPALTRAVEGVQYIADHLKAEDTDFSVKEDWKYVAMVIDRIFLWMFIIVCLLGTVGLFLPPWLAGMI

[8] = target: Nicotinic acetylcholine receptor alpha2/beta2 (Homo sapiens, UniProt P02708+P17787); assay: Positive allosteric modulation of human alpha2beta2 nAChR expressed in HEK cells preincubated for 15 mins followed by dihydro-beta-erythroidine hydrobromide addition by fluorometric analysis; format: cell-based
Sequence of Nicotinic acetylcholine receptor alpha2/beta2 (P02708 whole entry): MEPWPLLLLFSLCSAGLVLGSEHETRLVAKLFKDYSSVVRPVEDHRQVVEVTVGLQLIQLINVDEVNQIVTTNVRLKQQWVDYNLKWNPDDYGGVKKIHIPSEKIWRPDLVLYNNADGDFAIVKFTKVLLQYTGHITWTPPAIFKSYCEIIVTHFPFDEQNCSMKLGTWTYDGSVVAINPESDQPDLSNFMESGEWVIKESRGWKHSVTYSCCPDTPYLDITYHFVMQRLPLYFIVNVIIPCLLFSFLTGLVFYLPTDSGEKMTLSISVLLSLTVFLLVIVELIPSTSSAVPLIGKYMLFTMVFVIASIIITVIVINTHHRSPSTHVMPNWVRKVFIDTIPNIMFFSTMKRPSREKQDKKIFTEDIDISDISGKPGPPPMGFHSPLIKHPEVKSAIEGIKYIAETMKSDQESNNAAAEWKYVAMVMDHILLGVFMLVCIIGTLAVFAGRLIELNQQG
Sequence of Nicotinic acetylcholine receptor alpha2/beta2 (P17787 whole entry): as the sequence (P17787 whole entry) above

[9] = Positive allosteric modulation of human (alpha4beta2)2alpha4 nAChR expressed in HEK cells preincubated for 15 mins followed by dihydro-beta-erythroidine hydrobromide addition by fluorometric analysis; format: cell-based; details: HEK293
[10] = target: Nicotinic acetylcholine receptor alpha2/beta4 (Homo sapiens, UniProt P02708+P30926); assay: Positive allosteric modulation of human alpha2beta4 nAChR expressed in HEK cells preincubated for 15 mins followed by dihydro-beta-erythroidine hydrobromide addition by fluorometric analysis; format: cell-based
Sequence of Nicotinic acetylcholine receptor alpha2/beta4 (P02708 whole entry): as the sequence (P02708 whole entry) above
Sequence of Nicotinic acetylcholine receptor alpha2/beta4 (P30926 whole entry): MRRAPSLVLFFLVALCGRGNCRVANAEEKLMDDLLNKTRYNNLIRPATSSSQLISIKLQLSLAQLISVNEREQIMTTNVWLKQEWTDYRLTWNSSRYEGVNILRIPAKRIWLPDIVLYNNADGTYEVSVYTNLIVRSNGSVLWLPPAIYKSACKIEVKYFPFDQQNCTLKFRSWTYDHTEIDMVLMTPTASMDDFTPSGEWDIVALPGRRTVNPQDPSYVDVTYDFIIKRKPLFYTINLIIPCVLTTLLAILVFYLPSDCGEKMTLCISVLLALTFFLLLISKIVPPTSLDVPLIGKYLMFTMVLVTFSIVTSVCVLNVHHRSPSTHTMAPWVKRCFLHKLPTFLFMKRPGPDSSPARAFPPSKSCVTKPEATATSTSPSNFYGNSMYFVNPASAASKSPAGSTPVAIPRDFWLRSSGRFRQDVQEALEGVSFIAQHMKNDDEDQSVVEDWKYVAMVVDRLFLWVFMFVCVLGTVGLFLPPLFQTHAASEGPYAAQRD

[11] = target: Neuronal acetylcholine receptor; alpha4/beta4 (Homo sapiens, UniProt P30926+P43681); assay: Positive allosteric modulation of human alpha4beta4 nAChR expressed in HEK cells preincubated for 15 mins followed by dihydro-beta-erythroidine hydrobromide addition by fluorometric analysis; format: cell-based
Sequence of Neuronal acetylcholine receptor; alpha4/beta4 (P30926 whole entry): as above
Sequence of Neuronal acetylcholine receptor; alpha4/beta4 (P43681 whole entry): as the sequence (P43681 whole entry) above

[12] = target: T5, Neuronal acetylcholine receptor; alpha4/beta2; assay: Positive allosteric modulation of human alpha4beta2 nAChR expressed in HEK cells preincubated for 15 mins followed by dihydro-beta-erythroidine hydrobromide addition by fluorometric analysis; format: cell-based
[13] = target: T2, Serotonin 3 (5-HT3) receptor; assay: Inhibition of human 5-HT3AB receptor expressed in […] cells after 30 mins by Fluo-4-AM dye based FLIPR assay; format: cell-based
[14] = target: 5-hydroxytryptamine receptor 3A/3C (Homo sapiens, UniProt P46098+Q8WXA8); assay: Inhibition of human 5-HT3AC receptor expressed in […] cells after 30 mins by Fluo-4-AM dye based FLIPR assay; format: cell-based
Sequence of 5-hydroxytryptamine receptor 3A/3C (Q8WXA8 whole entry, one chain of several): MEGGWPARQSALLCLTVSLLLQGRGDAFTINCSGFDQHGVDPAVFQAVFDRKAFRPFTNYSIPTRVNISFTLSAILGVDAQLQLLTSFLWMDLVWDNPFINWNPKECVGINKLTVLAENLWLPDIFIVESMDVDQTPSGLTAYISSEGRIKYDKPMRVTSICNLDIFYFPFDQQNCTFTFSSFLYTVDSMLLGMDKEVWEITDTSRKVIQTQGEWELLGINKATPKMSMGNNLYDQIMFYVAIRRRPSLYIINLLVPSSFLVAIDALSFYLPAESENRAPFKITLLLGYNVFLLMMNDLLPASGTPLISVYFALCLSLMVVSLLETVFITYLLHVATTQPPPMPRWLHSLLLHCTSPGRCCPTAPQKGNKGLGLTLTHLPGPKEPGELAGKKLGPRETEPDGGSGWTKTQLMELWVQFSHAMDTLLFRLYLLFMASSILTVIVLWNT

[15] = target: 5-hydroxytryptamine receptor 3A/3E (Homo sapiens, UniProt A5X5Y0+P46098); assay: Inhibition of human 5-HT3AE receptor expressed in […] cells after 30 mins by Fluo-4-AM dye based FLIPR assay; format: cell-based
Sequence of 5-hydroxytryptamine receptor 3A/3E (A5X5Y0 whole entry, one chain of several): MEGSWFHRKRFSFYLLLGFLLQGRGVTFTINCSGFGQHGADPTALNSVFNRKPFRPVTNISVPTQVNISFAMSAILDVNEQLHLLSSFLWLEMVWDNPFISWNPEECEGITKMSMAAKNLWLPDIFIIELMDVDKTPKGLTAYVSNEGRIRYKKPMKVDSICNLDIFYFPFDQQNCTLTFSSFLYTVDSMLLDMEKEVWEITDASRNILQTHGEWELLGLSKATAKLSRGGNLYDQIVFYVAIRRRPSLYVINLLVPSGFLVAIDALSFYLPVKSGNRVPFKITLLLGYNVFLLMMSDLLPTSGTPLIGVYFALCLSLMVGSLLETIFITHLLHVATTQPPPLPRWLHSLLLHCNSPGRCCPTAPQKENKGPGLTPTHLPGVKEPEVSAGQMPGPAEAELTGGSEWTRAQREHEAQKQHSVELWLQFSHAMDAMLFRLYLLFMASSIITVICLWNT

[16] = target: T3, 5-hydroxytryptamine receptor 3A; assay: Inhibition of human 5-HT3A receptor expressed in […] cells after 30 mins by Fluo-4-AM dye based FLIPR assay; format: cell-based

SMILES: COc1nc2ccccc2nc1C(=O)Nc1nc2ccccc2s1
- Kb [1]: 39.8 nM

SMILES: COc1nc2ccccc2nc1C(=O)Nc1ccc(C)cc1
- Kb [1]: 50.1 nM

SMILES: CN1CCN(c2nc3ccccc3nc2Cl)CC1
- Ki [2]: 22 nM
- Ki [3]: 0.04 nM

SMILES: CCCCCc1ccc2c(c1)OC(C)(C)[C@@H]1CCC(C)=C[C@@H]21
- fold change (FC) [4]: 30

SMILES: C#CCNc1nc(NCCCCC2CCN(Cc3ccccc3)CC2)c(C#N)cc1C#N
- IC50 [5]: 320 nM
- IC50 [6]: 1400 nM

SMILES: O=C(N[C@@H]1CCCNC1)c1cc2cccc(Br)c2s1
- EC50 [7]: 275 nM
- EC50 [8]: 660 nM
- EC50 [9]: 165 nM
- EC50 [10]: 286 nM
- EC50 [11]: 237 nM
- EC50 [12]: 446 nM

SMILES: O=C(c1cnc2ccccc2n1)N1CCN(Cc2ccccc2)CC1
- Kb [1]: 15.8 nM

SMILES: c1ccc2c(CSc3[nH]cnc4ncnc3-4)cccc2c1
- IC50 [13]: 430 nM
- IC50 [14]: 840 nM
- IC50 [15]: 710 nM
- IC50 [16]: 620 nM
